According to patent US10350206B2, “Benzyl substituted indazoles as BUB1 inhibitors” (Bayer Pharma Aktiengesellschaft, priority 2014, dated 2019):
Structures can show the parent of a compound that is named as a salt. Where two headings read alike, the source gives them in different places.

Key:
[1] = target: T1, catalytic domain of human Bub1 (amino acids 704-1085) (Homo sapiens, UniProt O43683); assay: Equilibrium probe competition assay (TR-FRET kinase binding assay); settings: read-out: Assay 5 IC50
T1 construct: catalytic domain of human Bub1 (amino acids 704-1085); His6 (N); made in house; host or cells: Hi5 insect cells
Protocol: The half-life of prodrugs (Table 3) poses a challenge for the verification of their biological activity. The Bub1 enzymatic activity assay (as per Biological Assay 1.0 infra) requires a minimum reaction time of 60 minutes in order to be able to assess the inhibitory activity of the compounds. During this time typically 20% to 60% of the prodrugs have been already converted to their corresponding drugs at the pH of 7.5 at which the assay is performed. Ideally one would perform the biological assay at a pH at which the prodrug is stable (e.g. pH 4). […] Alternatively, an assay requiring shorter incubation times would better estimate the binding affinities of the prodrugs. […] Extrapolating the stability data from Tables 3 and 4, one would expect at this time point most of the compound present in the test solution to be the prodrug.
FIGS. 1 and 2 combine the results from Biological Assay 5 with those from Biological Assay 6. The binding affinities over time of drug and prodrug pairs are shown as pIC50 together with the prodrug stability, and the pIC50 to be expected if only the drug present in the sample was responsible for the activity in the assay. Extrapolating the pIC50 from these graphs to time 0 (at which 100% of prodrug is present in the sample), the actual affinity of the drug and prodrug can be inferred. Secondly, looking at the differences between expected and real pIC50 an estimate can be made about the contribution of the prodrug to the observed activity.
Biological Assay 5.0: Equilibrium Probe Competition Assay:
Bub1 binding affinity of compounds described in the present invention were quantified using a time-resolved fluorescence energy transfer (TR-FRET) kinase binding assay which measures displacement of the synthetic fluorescent probe 5-[({2-[2-({2-[1-(4-ethoxy-2,6-difluorobenzyl)-1H-indazol-3-yl]-4-(pyridin-4-ylamino)pyrimidin-5-yl}oxy)ethoxy]ethyl}carbamothioyl)amino]-2-(6-hydroxy-3-oxo-3H-xanthen-9-yl)benzoic acid (6-5-1) by the (recombinant) catalytic domain of human Bub1 (amino acids 704-1085). The enzyme was expressed in Hi5 insect cells with N-terminal 6×His/AviTag® sequences, purified by affinity- (Ni-NTA) and size exclusion chromatography and site-specific biotinylated ex-vivo using a commercially available kit (Avidity).
In a typical assay 11 different concentrations of each compound (0.1 nM, 0.33 nM, 1.1 nM, 3.8 nM, 13 nM, 44 nM, 0.15 μM, 0.51 μM, 1.7 μM, 5.9 μM and 20 μM) were tested in duplicate within the same microtiter plate. To this end, 100-fold concentrated compound solutions (in DMSO) were made by serial dilution (1:3.4) of freshly prepared 2 mM stocks in a clear low volume 384-well source microtiter plate (Greiner Bio-One, Frickenhausen, Germany), from which 50 nl of compounds were transferred into a black low volume test microtiter plate from the same supplier. Subsequently 2 μL of a solution containing biotinylated Bub1 (the final concentration of Bub1 was adjusted depending on the activity of the enzyme lot in order to be within the linear dynamic range of the assay: typically ˜[…] were used) and 1 nM Streptavidin Terbium Cryptate (Cisbio, No. 610SATLB) in aqueous assay buffer [50 mM Tris/HCl pH 7.5, 200 mM potassium chloride (KCl), 1.0 mM dithiothreitol (DTT), 0.1 mM sodium ortho-vanadate, 1% (v/v) glycerol, 0.01% (w/v) bovine serum albumine (BSA), 0.005% (v/v) Triton X-100 (Sigma), were added to the compounds in the test plate and the mixture was incubated for 15 min at 22° C. to allow pre-equilibration of the putative enzyme-inhibitor complexes before the start of the probe competition reaction, which was initiated by the addition of 3 μL 1.67-fold concentrated solution (in assay buffer) of 6-5-1 (final concentration: 1.5 nM). The resulting mixture (5 μL final volume) was incubated at 22° C. during 0, 15, 30, 60, 120, 240 and 1440 min. […]

[2] = Stability in buffer at various pH values (HPLC detection); format: physicochemical; settings: 37° C., remaining prodrug; for Stability pH 4: % Test Compound after 4 h [F(t = 4 h) × 100/F(t = 0 h)]: pH 4 buffer; for Stability pH 7.4: % Test Compound after 4 h [F(t = 4 h) × 100/F(t = 0 h)]: pH 7.4 buffer
Protocol: Stability in Buffer at Various pH Values (HPLC Detection)
0.3 mg of the test compound was solved in 0.1 ml dimethylsulfoxide and 0.4 ml acetonitrile. For complete dissolution the HPLC vial with the sample solution was sonified for about 20 seconds. Then 1.0 ml of the respective buffer solution was added and the sample was again treated in the ultrasonic bath.
• pH 4.0: Fluka buffer, Order No. 33643 (11.76 g citric acid, 2.57 g sodium chloride and 2.72 g sodium hydroxide) • pH 7.4: 90 g of sodium chloride, 13.61 g of potassium dihydrogen phosphate and 83.35 g of 1 M sodium hydroxide solution were made up to 1 L with Millipore water and then diluted 1:10. • 10 μl portions of the sample solution were analysed by HPLC at different times (0 h, 1 h, 2h, 4h and 24h) at 37° C. The peak areas in percentage were used for quantification. HPLC Method: • Agilent 1100 with DAD (G1315B), binary pump (G1312A), autosampler (G1329A), column oven (G1316A), thermostat (G1330B); column: Kromasil 100 C18, 250 mm×4 mm, 5 μm; column temperature: 37° C.; eluent A: water+5 ml of perchloric acid/litre, eluent B: acetonitrile. Gradient: • 0 min 98% A, 2% B→0-3.0 min 85% A, 15% B→3.0-8.0 min 50% A, 50% B→8.0-16.0 min 50% A, 50% B→16.0-20.0 min 10% A, 90% B→20.0-21.0 10% A, 90% B→21.0-24.0 min 98% A, 2% B→24.0-25.0 min 98% A, 2% B; flow rate: 1.5 ml/min; UV detection: 210 nm.
The ratios of the peak area (F) at different times in relation to the peak area at the starting point are shown in Table 3 for representative examples: […]

Row | Structure (SMILES) | IC50 ([1]; Time 15 min) | IC50 ([1]; Time 30 min) | IC50 ([1]; Time 60 min) | IC50 ([1]; Time 90 min) | IC50 ([1]; Time 120 min) | IC50 ([1]; Time 240 min) | IC50 ([1]; Time 1440 min) | Stability pH 4: % Test Compound after 4 h [F(t = 4 h) × 100/F(t = 0 h)] [2] | Stability pH 7.4: % Test Compound after 4 h [F(t = 4 h) × 100/F(t = 0 h)] [2]
1 | COc1cnc(-c2nn(Cc3c(F)cc(OCCOC(=O)[C@H](C)NC(=O)[C@@H](N)CCCCN)cc3F)c3ccccc23)nc1Nc1ccnc(C)c1 [Example 4-1-1, 2-{3,5-difluoro-4-[(3-{5-methoxy-4-[(2-methylpyridin-4-yl)amino]pyrimidin-2-yl}-1 H-indazol-1-yl)methyl]phenoxy}ethyl L-lysyl-L-alaninate, salt with trifluoroacetic acid] | 17 nM | 10 nM | 12 nM | 10 nM | 7.2 nM | 5.8 nM | 2.7 nM | 100% | 4%
2 | COc1cnccc1Nc1nc(-c2nn(Cc3c(F)cc(OCCOC(=O)[C@H](C)NC(=O)[C@@H](N)CCCCN)cc3F)c3ccccc23)ncc1OC [Example 4-1-2, 2-{3,5-difluoro-4-[(3-{5-methoxy-4-[(3-methoxypyridin-4-yl)amino]pyrimidin-2-yl}-1H-indazol-1-yl)methyl]phenoxy}ethyl L-lysyl-L-alaninate, salt with trifluoroacetic acid] | 2.7 nM | 2.3 nM | 2.2 nM | 1.3 nM | 1 nM | 0.69 nM | 0.36 nM | 100% | 5%
3 | COc1cnc(-c2nn(Cc3c(F)cc(OCCOC(=O)[C@H](C)NC(=O)[C@H](N)CCCCN)cc3F)c3ccccc23)nc1Nc1ccnc(F)c1 [Example 4-1-3, 2-{3,5-difluoro-4-[(3-{4-[(2-fluoropyridin-4-yl)amino]-5-methoxypyrimidin-2-yl}-1H-indazol-1-yl)methyl]phenoxy}ethyl D-lysyl-L-alaninate, salt with trifluoroacetic acid] |  |  |  |  |  |  |  | 100% | 0%
4 | COc1cnc(-c2nn(Cc3c(F)cc(OCCOC(=O)[C@H](C)NC(=O)[C@@H](N)CCCCN)cc3F)c3ccccc23)nc1Nc1ccnc(F)c1 [Example 4-1-4, 2-{3,5-difluoro-4-[(3-{4-[(2-fluoropyridin-4-yl)amino]-5-methoxypyrimidin-2-yl}-1H-indazol-1-yl)methyl]phenoxy}ethyl L-lysyl-L-alaninate, salt with trifluoroacetic acid] |  |  |  |  |  |  |  | 100% | 9%
5 | COc1cnc(-c2nn(Cc3c(F)cc(OCCOC(=O)[C@H](C)NC(=O)[C@@H](N)CCCCN)cc3F)c3ccccc23)nc1Nc1ccncc1 [Example 6-2-1, 2-[3,5-difluoro-4-({3-[5-methoxy-4-(pyridin-4-ylamino)pyrimidin-2-yl]-1 H-indazol-1-yl}methyl)phenoxy]ethyl L-lysyl-L-alaninate, salt with trifluoroacetic acid, reference compound] |  |  |  |  |  |  |  | 100% | 3%
